Experimental data from patent US20180116993A1, “MODULATORS OF FARNESOID X RECEPTOR AND METHODS FOR THE USE THEREOF” (XIAMEN UNIVERSITY, priority 2015, published 2018).
Marks after values point to notes of the source that are not given here.

Legend:
[1] = test system: mice with APAP-induced liver injury; experiment: Acetaminophen (APAP)-induced liver injury in mouse; type: in vivo; conditions: for Hepatic GSH (μM/g liver tissue) / ALT (U/L): 5 mg/kg i.p. once daily for five days, then APAP 500 mg/kg, 8-week age mice; for Hepatic GSH (μM/g liver tissue): vehicle 9.1 ± 0.5; for ALT (U/L): serum, vehicle 786 ± 111
Source text: Methods: Acetaminophen (APAP)-induced liver injury in mouse is a commonly used model to study drugs protecting liver. Overdose of APAP causes liver injury by inducing the production of reactive oxygen species and reactive nitrogen species, and excessive consumption of reductive substances such as antioxidant glutathione (GSH), leading to the reduction of GSH in vivo, and the following upregulation of the activities of the aspartate aminotransferase (AST), the alanine aminotransferase (ALT) and the lactate dehydrogenase (LDH), which will result in liver inflammation and necrosis. In this example, the APAP-induced liver injury was used to detect the protection and repair functions of our compounds in liver injury.
One-year or 8-week age mice were maintained under environmentally controlled conditions with free access to standard chow diet and water. Animal experiments were conducted in the barrier facility of the Laboratory Animal Center, Xiamen University, approved by the Institutional Animal Use and Care Committee of Xiamen University, China.
Compounds were solved with DMSO and then prepared to work concentration with 40% HBC (2-hydroxypropyl-β-cyclodextrin) in which the final work concentrations of compounds are 5 mg/kg body weight, 10 mg/kg or 20 mg/kg in 100 μl injection volume and the concentration of DMSO is 10%. Compounds were intraperitoneal (i.p.) injected once daily for five days. For Feroline and Tschimganine, one-year age mice were used in the experiment. For other compounds, 8-week age mice were used. […] For Tschimganine, 20 mg/kg dose of compound was administered to mice. For other compounds, 5 mg/kg dose of compounds were administered to mice. Six hours after the fifth injection, 500 mg/kg body weight of APAP solved in PBS was i.p. injected to the mice. 24 hours later, mice were sacrificed. Part of each liver was fixed in 4% paraformaldehyde, and the liver histology characterization was analyzed by haematoxylin and eosin (H&E) staining with paraffin-embedded sections by standard procedures. Other liver tissues were collected for detecting the GSH levels, and the mRNA expression of genes involved in liver repairing, such as GPX1 and UGT1a1, by RT-PCR. The serums were collected to measure enzymes activities including AST, ALT and LDH. For the synthetic derivatives, ALT and GSH were selected as indicating markers for the function of these compounds.

db/db mice = experiment: Serum/blood metabolic parameters in high-fat diet fed db/db mice; type: in vivo, mouse; conditions: 10 mg/kg, treat for 10 days, vehicle 527 ± 63
Source text: KK-Ay mice (KK/Upj-Ay/J) are animal models with moderate obese and diabetes with insulin resistance. KK-Ay mice develop hyperglycemia, hyperinsulinemia, glucose intolerance and obesity as well as fat accumulation in liver by eight weeks of age. Pancreatic islets are hypertrophied and the β-cells are degranulated. db/db mice (BKS.Cg-Dockr+/+ Lepr^db/Jnju) are animal models of type II diabetes. They have the phenotype of insulin resistance. These model mice were used to detect the functions of our compounds on metabolic diseases.
8-10 weeks age mice were maintained as example 4, and fed with high-fat diet (Research Diets, D12492). Mice were i.p. injected with compounds once daily for 7, 10, 11 or 14 days as indicated in each table. After the last compounds injection, mice were fasted for 6 hours with free access to water, and then sacrificed. Part of each liver was fixed in 4% paraformaldehyde for H&E staining, and other liver tissues were stored in liquid nitrogen for enzyme activity measurement and gene expression analysis by RT-PCR. The serums were collected to measure metabolic parameters, including serum glucose, insulin, cholesterol, free fatty acid (FFA) and triglyceride levels. Serum glucose was analyzed using glucose oxidase method (Applygen, Beijing, China). The blood glucose in Table 11 was measured with Berenger blood glucose test strips (B/BRAUN, German) from blood by cutting mice tail after the 6th injection and following fast for 16 hours. Serum cholesterol and FFA were analyzed using Cholesterol Assay Kit and FFA Assay Kit (Bioassay Systems, USA; Nanjing Jiancheng Bioengineering Institute, China; FFA ELISA, R&D, USA), respectively. Serum triglyceride was analyzed using Triglyceride Assay Kit (Bioassay Systems, USA; WAKO Chemicals Inc., Japan; Applygen, Beijing, China). Liver triglyceride was analyzed using Tissue triglyceride assay kit (Applygen, Beijing, China). Serum insulin levels were measured by the Ultra Sensitive Mouse Insulin ELISA Kit (Crystal Chem. Inc., USA). RNA was isolated using Tissue RNA kit (Omega Bio-Tek, GA). The first strand cDNA were obtained by TAKARA reverse transcription kit. Real-time quantitative PCR were performed on a CFX96™ Real-Time PCR Detection System (Bio-Rad) using SYBR Premix Ex Taq™ (TAKARA). Relative mRNA expression levels were normalized to actin levels. […]

[2] = test system: inflammatory cytokines in tissues of db/db mice; experiment: Inflammatory cytokine mRNA levels in tissues of high-fat diet fed db/db mice (RT-PCR); type: in vivo, mouse; conditions: 5 mg/kg; for WAT, mRNA level (fold), IL-1β / WAT, mRNA level (fold), TNFα: white adipose tissue; for WAT, mRNA level (fold), IL-1β: vehicle 1.06 ± 0.2; for WAT, mRNA level (fold), TNFα: vehicle 1.15 ± 0.13; for mRNA level of iNOS (fold), Liver tissue: vehicle 1.06 ± 0.14; for mRNA level of iNOS (fold), Colon tissue: vehicle 1.12 ± 0.23
Source text: In this example, we detected the levels of various inflammatory cytokines including iNOS, IFNγ, TGFβ, TNFα, COX2, IL-1β, IL-6, SAA1, MIP-1α and CD36 in liver, kidney, white adipose tissue (WAT) in various mice models, including wild type mice treated with APAP in example 4, high-fat diet fed diabetic and obesity db/db and KK-Ay mice in example 5, high-fat diet fed wild-type mice in Example 5, as well as in primary hepatocytes with LPS induced inflammation, using RT-PCR.

SMILES | Hepatic GSH (μM/g liver tissue) [1] | ALT (U/L) [1] | other results
COc1cc(C(=O)OC2C/C(C)=C/CC/C(C)=C/[C@@H](O)[C@H]2C(C)C)ccc1O (some centres unmarked) [Tschimganidine] | – | – | Liver morphology by H&E staining (FIG. 1) ([1]; 10 mg/kg (Tschimganine 20 mg/kg) i.p. five days, then APAP, compared to severe liver injury in control group): almost normal liver morphology; expression levels of GPX1 and UGT1α1 in liver ([1]; mRNA by RT-PCR, vs vehicle control group, Table 5 (not given)): significantly upregulated; activities of serum AST, ALT and LDH ([1]; vs vehicle control group, Table 5 (not given)): dramatically lower
CC1(C)C2CCC1(C)C(OC(=O)c1ccc(F)cc1)C2 (centres unmarked) [XD-0, 1,7,7-trimethyl-bicyclo[2.2.1]-heptan-2-yl 4-fluorobenzoate] | 15.0 ± 0.5 ^b μM/g liver tissue | – | Serum Glucose (mg/dl) (db/db mice): 223 ± 33^b mg/dl
CC1(C)C2CCC1(C)C(OC(=O)c1ccc(N)cc1)C2 (centres unmarked) [XD-5, 1,7,7-trimethyl-bicyclo[2.2.1]-heptan-2-yl 4-aminobenzoate] | 12.8 ± 0.3 ^b μM/g liver tissue | 197 ± 57 ^b U/L | WAT, mRNA level (fold), IL-1β [2]: 0.33 ± 0.2^a fold; WAT, mRNA level (fold), TNFα [2]: 0.56 ± 0.17^a fold
CC1(C)C2CCC1(C)C(OC(=O)c1ccncc1)C2 (centres unmarked) [XD-6, 1,7,7-trimethyl-bicyclo[2.2.1]-heptan-2-yl isonicotinate] | – | 109 ± 26 ^c U/L | –
CC1(C)C2CCC1(C)C(OC(=O)c1ccc(=O)[nH]c1)C2 (centres unmarked) [XD-8, 1,7,7-trimethyl-bicyclo[2.2.1]-heptan-2-yl 6-oxo-1,6-dihydropyridine-3-carboxylate] | – | 115 ± 38 ^c U/L | –
CC1(C)C2CCC1(C)C(OC(=O)c1ccc(=O)oc1)C2 (centres unmarked) [XD-9, 1,7,7-trimethyl-bicyclo[2.2.1]-heptan-2-yl 6-oxo-6H-pyran-3-carboxylate] | – | – | Serum Glucose (mg/dl) (db/db mice): 399 ± 41^a mg/dl
O=C(OC1CCCCCCC1)c1ccc(O)cc1 [XD-10, cyclooctyl 4-hydroxybenzoate] | – | 114 ± 31 ^c U/L | mRNA level of iNOS (fold), Liver tissue [2]: 0.52 ± 0.3^a fold; mRNA level of iNOS (fold), Colon tissue [2]: 0.49 ± 0.21^a fold
O=C(OC1CCCCCCCCCCC1)c1ccc(O)cc1 [XD-11, cyclododecyl 4-hydroxybenzoate] | 12.6 ± 0.4 ^b μM/g liver tissue | – | –
Nc1ccc(C(=O)OC2CCCCCC2)cc1 [XD-12, cycloheptyl 4-aminobenzoate] | 12.5 ± 0.7 ^a μM/g liver tissue | – | –
CC1(C)C2CCC1(C)C(OC(=O)c1ccc(F)c(Br)c1)C2 (centres unmarked) [XD-13, 1,7,7-trimethyl-bicyclo[2.2.1]-heptan-2-yl 3-bromo-4-fluoro-benzoate] | 13.7 ± 0.9 ^a μM/g liver tissue | – | –
COc1cc(C(=O)OC2CCCCCCC2)ccc1O [XD-18, cyclooctyl 4-hydroxy-3-methoxybenzoate] | – | 135 ± 48 ^a U/L | –
Nc1ccc(C(=O)OC2CCC3CCCCC3C2)cc1 (centres unmarked) [XD-23, decahydro-naphthalen-2-yl 4-aminobenzoate] | – | 130 ± 62 ^a U/L | mRNA level of iNOS (fold), Liver tissue [2]: 0.2 ± 0.1^a fold; mRNA level of iNOS (fold), Colon tissue [2]: 0.55 ± 0.29^a fold; WAT, mRNA level (fold), IL-1β [2]: 0.64 ± 0.13^a fold; WAT, mRNA level (fold), TNFα [2]: 0.6 ± 0.21^a fold
O=C(OC1CCC2CCCCC2C1)c1ccc(O)cc1 (centres unmarked) [XD-28, decahydro-naphthalen-2-yl 4-hydroxy-benzoate] | – | 114 ± 25 ^c U/L | –
Cc1cc(C(=O)OC2CCC3CCCCC3C2)ccc1O (centres unmarked) [XD-29, decahydro-naphthalen-2-yl 4-hydroxy-3-methylbenzoate] | – | 118 ± 31 ^c U/L | –
COc1cc(C(=O)OC2CCC3CCCCC3C2)ccc1O (centres unmarked) [XD-30, decahydro-naphthalen-2-yl 4-hydroxy-3-methoxybenzoate] | – | 107 ± 41 ^b U/L | Serum Glucose (mg/dl) (db/db mice): 400 ± 51^a mg/dl
Cc1cc(C(=O)OC2CCC3CCCCC3C2)ccc1[N+](=O)[O-] (centres unmarked) [XD-35, decahydro-naphthalen-2-yl 3-methyl-4-nitro-benzoate] | 12.6 ± 1.6 ^a μM/g liver tissue | – | Serum Glucose (mg/dl) (db/db mice): 337 ± 67^a mg/dl
COc1cc(C(=O)OC2CCC3CCCCC3C2)ccc1[N+](=O)[O-] (centres unmarked) [XD-36, decahydro-naphthalen-2-yl 3-methoxy-4-nitrobenzoate] | 14.8 ± 0.3 ^b μM/g liver tissue | – | Serum Glucose (mg/dl) (db/db mice): 366 ± 65^a mg/dl
